What was measured:
plasma methionine = test: Plasma methionine depletion following intravenous injection of naked and PEGylated rMETase, with or without PLP pump; format: in vivo, Athymic nude (nu/nu) mice; settings: for Max. Period of MET depletion below 5 μM, PLP+: with PLP supplementation from s.c. mini-osmotic pump; for Period of plasma methionine depletion below 5 μM relative to naked rMETase: fold longer than naked rMETase; for PLP dependence (ratio of plasma methionine PLP− versus PLP+): ratios at various time points, FIG. 8
Procedure: The methionine level in the plasma was measured by pre-column derivitization, followed by HPLC separation (Jones, B. N., and Gilligan, J. P., J. Chromatogr. (1983) 266:471-482). Briefly, 10 μl of plasma sample or methionine standard was precipitated with 30 μl of acetonitrile, followed by centrifugation at 10,000 rpm for 5 minutes. 10 μl of the supernatant was mixed with 5 μl of a fluoraldehyde derivative reagent, o-phthaldialdehyde, for 1 minute at room temperature, followed by addition of 150 μl of 0.1 M sodium acetate, pH 7.0. 20 μl of the reaction mixture was loaded on a reversed-phase Supelcosil™ LC-18DB column (25 cm×[…], particle size 5 μm (Supelco, Bellefonte, Pa., USA). The amino acid derivatives were separated by using a gradient elution of 40-60% solution B (Methanol) in solution A (tetrahydrofuran/methanol/0.1M sodium acetate. pH 7.2; 5/95/900) at a flow rate of 1.5 ml/minute. A fluorescence spectrophotometer was used for detection: excitation at 350 nm and emission at 450 nm. The plasma methionine was identified by the retention time of a methionine standard solution and quantitated according to a methionine standard curve.
(§1) Athymic nude (nu/nu) mice aged 4 weeks (20-25 g) were used for the study with 4 mice per group. Osmotic mini-pumps filled with 250 μl PLP (0.5 g/ml) were implanted subcutaneously. Twenty-four hours after pump implantation, 80 units of native rMETase or PEG-rMETase in 0.5 ml PBS, pH 7.4, were injected via the tail vein in mice with or without PLP pumps. 400 μl of blood was collected from the retroorbital plexus of each animal using heparinized capillary tubes. Blood was collected prior to injection, and 1, 2, 4, 8, 24, 48, 72, 96 and 120 hours post injection. The plasma was separated and stored in small aliquots at −80° C. The plasma enzyme activity, methionine concentration and PLP level in the plasma, collected at the different time points, were measured as described above.
(§2) 80 U of naked or PEGylated rMETase were injected i.v. in each mouse with or without PLP supplementation. Blood samples were collected at different time points and measured for enzyme activity and methionine concentration as described in the Materials and Methods. Plasma half-life was calculated from the plasma enzyme concentration-time profiles (FIG. 4). Maximum period of methionine depletion below 5 μM is calculated from the plasma methionine levels in FIGS. 5 and 7.
The mice were injected i.v. with 80 U of naked or the indicated PEGylated rMETase. Blood samples were collected at different time points and measured for plasma methionine concentration as described above.
In these experiments, 80 U of naked or PEGylated rMETase was injected intravenously in animals with and without PLP supplementation from implanted mini-osmotic pumps. Blood samples were taken at different time points and measured for plasma methionine concentration. […] The plasma methionine levels depleted by the three PEGylated rMETase conjugates were maintained below 2 μM for 48 hours and below 4 μM for 72 hours in case of PEG/rMETase 120 with PLP supplementation (Table 3). At 120 hours after injection of PEG/rMETase, the plasma methionine level depleted by PEG/rMETase 30, PEG/rMETase 60 and PEG/rMETase 120 still remained at 40%, 57% and 22% of normal baseline, respectively (Table 3).

cancer cell lines = settings: wide variety of cancer cell lines, in vitro; cited from earlier work
[1] = Pharmacokinetics: plasma enzyme activity following intravenous injection of naked and PEGylated rMETase in mice; format: in vivo, Athymic nude (nu/nu) mice; settings: for Plasma half-life in mice: 80 U i.v. per mouse, calculated from plasma enzyme activity-time profiles; for Plasma enzyme activity detectable until: 80 units per mouse i.v.
Procedure: rMETase activity was determined from α-ketobutyrate produced from L-methionine according to the method of Tanaka, H., et al., Biochemistry (1977) 16:100-106, with slight modification. 0.5 ml of sample diluted in 100 mM potassium phosphate buffer pH 8.0, containing 0.01% DTT, 1 mM EDTA Nae, 10 μM PLP and 0.05% Tween 80, was mixed with 0.5 ml of substrate solution containing 100 mM potassium phosphate buffer, pH 8.0, containing 25 mM L-methionine and 10 μM PLP in a glass test tube. The reaction mixture was vortexed immediately and incubated at 37° C. without shaking for precisely 10 minutes. The reaction was stopped by adding 0.5 ml of 50% TCA. The suspension was centrifuged at 13,000 rpm for 2 minutes. The supernatant (0.5 ml) was collected in a glass tube containing 1 ml 1 M acetate buffer, pH 5.0. Then, 0.4 ml MBTH solution containing 0.1% 3-methyl-2-benzothiazolinonehydrazone dihydrochloride monohydrate (Wako Pure Chemical, Osaka, Japan) was added to the tube, mixed well and incubated at 50° C. for 30 minutes. The absorbance of the reaction mixture was measured at 320 nm. The assay was carried out in triplicate. ΔE was calculated by subtracting the average absorbance of blanks from the average absorbance of the reaction mixture. The enzyme activity was calculated by the following equation: Activity (U/ml)=0.548 (1.07+2.2ΔE) ΔE. One unit of enzyme is defined as the amount of enzyme which produced 1 μM of α-ketobutyrate per minute at an infinite concentration of L-methionine.
as §1
The mice were injected intravenously with 80 U naked or the indicated PEGylated rMETase. Blood samples were collected at different time points and measured for plasma enzyme activity as described above.
as §2

[2] = tested on: plasma anti-rMETase specific antibody; test: Plasma anti-rMETase antibody titer by sandwich ELISA after immunization with FCA; format: in vivo, BALB/c male mice; settings: mice immunized i.p. with 200 μg in FCA; figures in parentheses = numbers of mice
Procedure: BALB/c male mice were grouped randomly at 5 per group. Each mouse received three i.p. injections of 0.2 ml (200 μg) naked or PEG-rMETase emulsified in Freund's complete adjuvant (FCA) at weekly intervals. Two weeks following the last injection, a booster injection of the rMETase or PEG-rMETase was given to each mouse. Blood samples were collected two weeks after the booster injection, and plasma was separated and stored at −80° C.
Plasma anti-rMETase antibody was measured using a sandwich ELISA technique. 100 μl 200 μg/ml rMETase in 0.1 M carbonate coating buffer, pH 9.5, was added to each well of a 96-well microplate and incubated at 4° C. overnight. The plate was washed three times with PBS washing buffer, pH 7.4, containing 0.05% Tween-20, and blocked for 2 hours at room temperature with 200 μl of PBS assay buffer, pH 7.4, containing 10% FBS. After washing three times, 100 μl of 10-fold serial dilutions of the plasma samples in PBS assay buffer were added to appropriate wells and incubated for 2 hours at room temperature, followed by washing. 100 μl optimally diluted goat anti-mouse IgG and IgM subtypes conjugated with horseradish peroxidase (SIGMA, St. Louis, Mo., USA) were added to each well. The plate was incubated for 1 hour at room temperature and washed three times. 100 μl substrate solution containing O-phenylenediamine dihydrochloride (OPD) and hydrogen peroxide (SIGMA, St. Louis, Mo., USA) were added to each well, followed by 30 min incubation at room temperature. 50 μl 2N sulfuric acid were added to each well to stop the color reaction. The absorbance of each well was measured at 492 nm. The antibody titer was determined as the highest plasma dilution at which the extinction at 492 nm generated in the well of the immune plasma exceeded twice the extinction generated in those wells with negative control plasma.
IgG and IgM anti-rMETase antibody titers of the plasma of the mice immunized with naked or indicated PEGylated rMETase in the presence of FCA were determined using ELISA as described in the Materials and Methods. […]

[3] = literature comparison; cited from earlier work
[4] = 80 U i.v., without PLP supplementation
[5] = 80 U i.v., with PLP supplementation

| Substance | Plasma methionine level reached within 1 hour (plasma methionine; 80 U i.v., baseline 40 μM, without PLP supplementation) | Max. Period of MET depletion below 5 μM, PLP+ (plasma methionine; 80 U i.v.) [h] | Max. Period of MET depletion below 5 μM, PLP− (plasma methionine; [4]) [h] | IC50 in cancer cell lines compared to non-neoplastic cells (cancer cell lines) | Plasma half-life in mice [1] [h] | Plasma methionine level at 120 hours after injection, of normal baseline (plasma methionine; [5]) [%] | Period of plasma methionine depletion below 5 μM relative to naked rMETase (plasma methionine; [4]) [fold] | Plasma anti-rMETase specific IgM antibody titer [2] | Plasma enzyme activity detectable until [1] [h] | PLP dependence (ratio of plasma methionine PLP− versus PLP+) (plasma methionine) | Plasma methionine level maintained for 72 hours (plasma methionine; [5]) | Plasma half-life [3] [h] |
| --- | --- | --- | --- | --- | --- | --- | --- | --- | --- | --- | --- | --- |
| L-methionine α-deamino-γ-mercaptomethane lyase [Naked rMETase] | less than 5 μM | 4 | 4 | several-fold less |  |  |  |  |  |  |  |  |
| PEG/rMETase 30: rMETase conjugated with MEGC-PEG-5000 at molar ratio PEG/rMETase of 30/1 |  | 48 | 8 |  | 12 | 40 | 2 | 10^−3 (5) |  |  |  |  |
| PEG/rMETase 60: rMETase conjugated with MEGC-PEG-5000 at molar ratio PEG/rMETase of 60/1 |  | 48 | 24 |  | 18 | 57 | 6 | 10^−3 (5) | 72 | lesser PLP dependence than PEG/rMETase 30 |  |  |
| PEG/rMETase 120: rMETase conjugated with MEGC-PEG-5000 at molar ratio PEG/rMETase of 120/1 |  | 72 | 48 |  | 38 | 22 | 12 | 10^−3 (5) | 72 | lesser PLP dependence than PEG/rMETase 30 | below 4 μM |  |
| PEGylated rMETase with M-SPA-PEG: Literature rMETase PEGylated with M-SPA-PEG, comparison for half-life |  |  |  |  |  |  |  |  |  |  |  | 0.667 |

Source: patent US20140205583A1, “USE OF PLP WITH PEG-rMETase IN VIVO FOR ENHANCED EFFICACY” (AntiCancer, Inc., priority 2003, published 2014)
